Measured values from US9695155B2, “Herbicidal substituted pyrimidinyloxy benzene compounds” (E. I. DU PONT DE NEMOURS AND COMPANY, priority 2013, dated 2017).

Assays:
[1] = test system: waterhemp; experiment: Test E preemergence; format: in vivo, Amaranthus rudis; conditions: for Waterhemp plant response rating: scale 0 to 100 (0 no effect, 100 complete control)
Source text: (§1) Seeds of plant species selected from corn (Zea mays), soybean (Glycine max), velvetleaf (Abutilon theophrasti), lambsquarters (Chenopodium album), wild poinsettia (Euphorbia heterophylla), palmer pigweed (Amaranthus palmeri), waterhemp (common waterhemp, Amaranthus rudis), surinam grass (Brachiaria decumbens), large (Lg) crabgrass (Digitaria sanguinalis), Brazilian crabgrass (Digitaria horizontalis), fall panicum (Panicum dichotomiflorum), giant foxtail (Setaria faberii), green foxtail (Setaria viridis), goosegrass (Eleusine indica), johnsongrass (Sorghum halepense), ragweed (common ragweed, Ambrosia elatior), barnyardgrass (Echinochloa crus-galli), sandbur (southern sandbur, Cenchrus echinatus), arrowleaf sida (Sida rhombifolia), Italian ryegrass (Lolium multiflorum), dayflower (Virginia (VA) dayflower, Commelina virginica), field bindweed (Convolvulus arvensis), morningglory (Ipomoea coccinea), nightshade (eastern black nightshade, Solanum ptycanthum), kochia (Kochia scoparia), yellow nutsedge (Cyperus esculentus), cocklebur (common cocklebur, Xanthium strumarium), smartweed (ladysthumb smartweed, and hairy beggarticks (Bidens pilosa), were planted into a silt loam soil and treated preemergence with test chemicals formulated in a non-phytotoxic solvent mixture which included a surfactant.
(§2) At the same time, plants from these crop and weed species and also horseweed (Canada horseweed, Conyza canadensis), waterhemp_RES1, (ALS & Triazine resistant common waterhemp, Amaranthus rudis), and waterhemp_RES2, (ALS & HPPD resistant common waterhemp, Amaranthus rudis) were planted in pots containing Redi-Earth® planting medium (Scotts Company, 14111 Scottslawn Road, Marysville, Ohio 43041) comprising spaghnum peat moss, vermiculite, wetting agent and starter nutrients were treated with postemergence applications of test chemicals formulated in the same manner. Plants ranged in height from 2 to 18 cm for postemergence treatments (1- to 4-leaf stage). Treated plants and controls were maintained in a greenhouse for 14 to 21 days, after which time all species were compared to controls and visually evaluated. Plant response ratings, summarized in Table E, are based on a scale of 0 to 100 where 0 is no effect and 100 is complete control. A dash (-) response means no test result.

[2] = test system: lambsquarters; experiment: Test E preemergence; format: in vivo, Chenopodium album; conditions: for Lambsquarters plant response rating: scale 0 to 100 (0 no effect, 100 complete control)
Outline: (§3)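 Compound in a non-phytotoxic solvent mixture with surfactant was applied preemergence to seeds in silt loam soil, or postemergence to plants 2 to 18 cm tall grown in peat-based potting medium. Plants were kept in a greenhouse for 14 to 21 days, then rated visually against untreated controls on a 0 (no effect) to 100 (complete control) scale.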

[3] = test system: sandbur; experiment: Test E preemergence; format: in vivo, Cenchrus echinatus; conditions: for Sandbur plant response rating: scale 0 to 100 (0 no effect, 100 complete control)
Outline: as §3

[4] = test system: Brazilian crabgrass; experiment: Test E preemergence; format: in vivo, Digitaria horizontalis; conditions: for Crabgrass, Brazil plant response rating: scale 0 to 100 (0 no effect, 100 complete control)
Source text: as §1, §2

[5] = test system: barnyardgrass; experiment: Test E preemergence; format: in vivo, Echinochloa crus-galli; conditions: preemergence; for Barnyardgrass plant response rating: scale 0 to 100 (0 no effect, 100 complete control)
Outline: as §3

[6] = test system: barnyardgrass; experiment: Test C flooded paddy test; format: in vivo, Echinochloa crus-galli; conditions: Flood, scale 0 to 100 (0 no effect, 100 complete control), 13 to 15 days
Outline: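 Ratings were visual and made relative to untreated controls after 13 to 15 greenhouse days.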

[7] = test system: large (Lg) crabgrass; experiment: Test E preemergence; format: in vivo, Digitaria sanguinalis; conditions: for Crabgrass, Large plant response rating: scale 0 to 100 (0 no effect, 100 complete control)
Outline: as §3

[8] = test system: Italian ryegrass; experiment: Test E preemergence; format: in vivo, Lolium multiflorum; conditions: for Ryegrass, Italian plant response rating: scale 0 to 100 (0 no effect, 100 complete control)
Outline: as §3

[9] = test system: nightshade; experiment: Test E preemergence; format: in vivo, Solanum ptycanthum; conditions: for Nightshade plant response rating: scale 0 to 100 (0 no effect, 100 complete control)
Source text: as §1, §2

[10] = test system: ragweed; experiment: Test E preemergence; format: in vivo, Ambrosia elatior; conditions: for Ragweed plant response rating: scale 0 to 100 (0 no effect, 100 complete control)
Outline: as §3

[11] = test system: kochia; experiment: Test E preemergence; format: in vivo, Kochia scoparia; conditions: for Kochia plant response rating: scale 0 to 100 (0 no effect, 100 complete control)
Source text: as §1, §2

[12] = 125 g ai/ha, scale 0 to 100, 0 no effect, 100 complete control
[13] = 8 g ai/ha, scale 0 to 100, 0 is no effect, 100 is complete control
[14] = 250 g ai/ha, scale 0 to 100, 0 no effect, 100 complete control

Fc1cnc(Oc2cccc(C(F)F)c2-n2cc(C(F)(F)F)cn2)nc1 [Compound 164]
Waterhemp plant response rating ([1]; 31 g ai/ha): 65
Waterhemp plant response rating ([1]; 62 g ai/ha): 90
Plant response rating, Waterhemp [1, 12]: 90
Lambsquarters plant response rating ([2]; 31 g ai/ha): 75
Lambsquarters plant response rating ([2]; 62 g ai/ha): 98
Plant response rating, Lambsquarters [2, 12]: 100
Sandbur plant response rating ([3]; 31 g ai/ha): 0
Sandbur plant response rating ([3]; 62 g ai/ha): 0
Plant response rating, Sandbur [3, 12]: 10
Crabgrass, Brazil plant response rating ([4]; 16 g ai/ha): 0
Crabgrass, Brazil plant response rating ([4]; 31 g ai/ha): 20
Crabgrass, Brazil plant response rating ([4]; 62 g ai/ha): 75
Plant response rating, Crabgrass, Brazil [4, 12]: 100
Barnyardgrass plant response rating ([5]; 16 g ai/ha): 0
Barnyardgrass plant response rating ([5]; 31 g ai/ha): 0
Barnyardgrass plant response rating ([5]; 62 g ai/ha): 0
Plant response rating, Barnyardgrass [5, 12]: 65
Plant response rating, Barnyardgrass ([6]; 31 g ai/ha): 0
Plant response rating, Barnyardgrass ([6]; 62 g ai/ha): 0
Plant response rating, Barnyardgrass ([6]; 125 g ai/ha): 0
Plant response rating, Barnyardgrass ([6]; 250 g ai/ha): 0
Crabgrass, Large plant response rating ([7]; 16 g ai/ha): 35
Crabgrass, Large plant response rating ([7]; 31 g ai/ha): 35
Crabgrass, Large plant response rating ([7]; 62 g ai/ha): 75
Plant response rating, Crabgrass, Large [7, 12]: 100
Ryegrass, Italian plant response rating ([8]; 31 g ai/ha): 0
Ryegrass, Italian plant response rating ([8]; 62 g ai/ha): 30
Plant response rating, Ryegrass, Italian [8, 12]: 60
Nightshade plant response rating ([9]; 31 g ai/ha): 50
Nightshade plant response rating ([9]; 62 g ai/ha): 80
Plant response rating, Nightshade [9, 12]: 95
Ragweed plant response rating ([10]; 31 g ai/ha): 0
Ragweed plant response rating ([10]; 62 g ai/ha): 25
Plant response rating, Ragweed [10, 12]: 60
Kochia plant response rating ([11]; 31 g ai/ha): 0
Kochia plant response rating ([11]; 62 g ai/ha): 75
Plant response rating, Kochia [11, 12]: 100

NC(=S)c1cccc(Oc2ncc(Cl)cn2)c1-n1cc(Cl)cn1 [Compound 292]
Plant response rating, Waterhemp [1, 13]: 0
Waterhemp plant response rating ([1]; 31 g ai/ha): 20
Waterhemp plant response rating ([1]; 62 g ai/ha): 80
Plant response rating, Waterhemp [1, 12]: 100
Plant response rating, Lambsquarters [2, 13]: 0
Lambsquarters plant response rating ([2]; 31 g ai/ha): 0
Lambsquarters plant response rating ([2]; 62 g ai/ha): 25
Plant response rating, Lambsquarters [2, 12]: 100
Plant response rating, Sandbur [3, 13]: 0
Sandbur plant response rating ([3]; 31 g ai/ha): 20
Sandbur plant response rating ([3]; 62 g ai/ha): 0
Plant response rating, Sandbur [3, 12]: 35
Plant response rating, Crabgrass, Brazil [4, 13]: 0
Crabgrass, Brazil plant response rating ([4]; 16 g ai/ha): 10
Crabgrass, Brazil plant response rating ([4]; 31 g ai/ha): 40
Crabgrass, Brazil plant response rating ([4]; 62 g ai/ha): 100
Plant response rating, Crabgrass, Brazil [4, 12]: 100
Plant response rating, Barnyardgrass [5, 13]: 0
Barnyardgrass plant response rating ([5]; 16 g ai/ha): 0
Barnyardgrass plant response rating ([5]; 31 g ai/ha): 0
Barnyardgrass plant response rating ([5]; 62 g ai/ha): 0
Plant response rating, Barnyardgrass [5, 12]: 40
Plant response rating, Crabgrass, Large [7, 13]: 0
Crabgrass, Large plant response rating ([7]; 16 g ai/ha): 0
Crabgrass, Large plant response rating ([7]; 31 g ai/ha): 20
Crabgrass, Large plant response rating ([7]; 62 g ai/ha): 90
Plant response rating, Crabgrass, Large [7, 12]: 100
Plant response rating, Ryegrass, Italian [8, 13]: 0
Ryegrass, Italian plant response rating ([8]; 31 g ai/ha): 0
Ryegrass, Italian plant response rating ([8]; 62 g ai/ha): 0
Plant response rating, Ryegrass, Italian [8, 12]: 35
Plant response rating, Nightshade [9, 13]: 0
Nightshade plant response rating ([9]; 31 g ai/ha): 5
Nightshade plant response rating ([9]; 62 g ai/ha): 70
Plant response rating, Nightshade [9, 12]: 80
Plant response rating, Ragweed [10, 13]: 0
Ragweed plant response rating ([10]; 31 g ai/ha): 0
Ragweed plant response rating ([10]; 62 g ai/ha): 0
Plant response rating, Ragweed [10, 12]: 35
Plant response rating, Kochia [11, 13]: 0
Kochia plant response rating ([11]; 31 g ai/ha): 0
Kochia plant response rating ([11]; 62 g ai/ha): 70
Plant response rating, Kochia [11, 12]: 98

Cc1cnc(Oc2cccc(C#N)c2-n2cc(C(F)(F)F)cn2)nc1 [Compound 180]
Waterhemp plant response rating ([1]; 31 g ai/ha): 98
Waterhemp plant response rating ([1]; 62 g ai/ha): 98
Plant response rating, Waterhemp [1, 12]: 100
Plant response rating, Waterhemp [1, 14]: 100
Lambsquarters plant response rating ([2]; 31 g ai/ha): 98
Lambsquarters plant response rating ([2]; 62 g ai/ha): 100
Plant response rating, Lambsquarters [2, 12]: 100
Plant response rating, Lambsquarters [2, 14]: 100
Sandbur plant response rating ([3]; 31 g ai/ha): 0
Sandbur plant response rating ([3]; 62 g ai/ha): 20
Plant response rating, Sandbur [3, 12]: 75
Plant response rating, Sandbur [3, 14]: 90
Crabgrass, Brazil plant response rating ([4]; 31 g ai/ha): 90
Crabgrass, Brazil plant response rating ([4]; 62 g ai/ha): 100
Plant response rating, Crabgrass, Brazil [4, 12]: 100
Plant response rating, Crabgrass, Brazil [4, 14]: 100
Barnyardgrass plant response rating ([5]; 31 g ai/ha): 20
Barnyardgrass plant response rating ([5]; 62 g ai/ha): 98
Plant response rating, Barnyardgrass [5, 12]: 100
Plant response rating, Barnyardgrass [5, 14]: 100
Crabgrass, Large plant response rating ([7]; 31 g ai/ha): 90
Crabgrass, Large plant response rating ([7]; 62 g ai/ha): 98
Plant response rating, Crabgrass, Large [7, 12]: 100
Plant response rating, Crabgrass, Large [7, 14]: 100
Ryegrass, Italian plant response rating ([8]; 31 g ai/ha): 0
Ryegrass, Italian plant response rating ([8]; 62 g ai/ha): 0
Plant response rating, Ryegrass, Italian [8, 12]: 30
Plant response rating, Ryegrass, Italian [8, 14]: 70
Nightshade plant response rating ([9]; 31 g ai/ha): 75
Nightshade plant response rating ([9]; 62 g ai/ha): 98
Plant response rating, Nightshade [9, 12]: 98
Plant response rating, Nightshade [9, 14]: 100
Ragweed plant response rating ([10]; 31 g ai/ha): 70
Ragweed plant response rating ([10]; 62 g ai/ha): 90
Plant response rating, Ragweed [10, 12]: 100
Plant response rating, Ragweed [10, 14]: 100
Kochia plant response rating ([11]; 31 g ai/ha): 0
Kochia plant response rating ([11]; 62 g ai/ha): 20
Plant response rating, Kochia [11, 12]: 100
Plant response rating, Kochia [11, 14]: 100

FC(F)c1cccc(Oc2ncc(Cl)cn2)c1-n1cc(C(F)(F)F)cn1 [Compound 170]
Plant response rating, Waterhemp [1, 13]: 0
Waterhemp plant response rating ([1]; 31 g ai/ha): 80
Waterhemp plant response rating ([1]; 62 g ai/ha): 90
Plant response rating, Waterhemp [1, 12]: 80
Plant response rating, Lambsquarters [2, 13]: 0
Lambsquarters plant response rating ([2]; 31 g ai/ha): 98
Lambsquarters plant response rating ([2]; 62 g ai/ha): 100
Plant response rating, Lambsquarters [2, 12]: 100
Plant response rating, Sandbur [3, 13]: 0
Sandbur plant response rating ([3]; 31 g ai/ha): 0
Sandbur plant response rating ([3]; 62 g ai/ha): 30
Plant response rating, Sandbur [3, 12]: 35
Plant response rating, Crabgrass, Brazil [4, 13]: 30
Crabgrass, Brazil plant response rating ([4]; 16 g ai/ha): 40
Crabgrass, Brazil plant response rating ([4]; 31 g ai/ha): 100
Crabgrass, Brazil plant response rating ([4]; 62 g ai/ha): 100
Plant response rating, Crabgrass, Brazil [4, 12]: 100
Plant response rating, Barnyardgrass [5, 13]: 0
Barnyardgrass plant response rating ([5]; 16 g ai/ha): 0
Barnyardgrass plant response rating ([5]; 31 g ai/ha): 0
Barnyardgrass plant response rating ([5]; 62 g ai/ha): 35
Plant response rating, Barnyardgrass [5, 12]: 75
Plant response rating, Crabgrass, Large [7, 13]: 0
Crabgrass, Large plant response rating ([7]; 16 g ai/ha): 0
Crabgrass, Large plant response rating ([7]; 31 g ai/ha): 70
Crabgrass, Large plant response rating ([7]; 62 g ai/ha): 98
Plant response rating, Crabgrass, Large [7, 12]: 100
Plant response rating, Ryegrass, Italian [8, 13]: 0
Ryegrass, Italian plant response rating ([8]; 31 g ai/ha): 20
Ryegrass, Italian plant response rating ([8]; 62 g ai/ha): 35
Plant response rating, Ryegrass, Italian [8, 12]: 70
Plant response rating, Nightshade [9, 13]: 0
Nightshade plant response rating ([9]; 31 g ai/ha): 50
Nightshade plant response rating ([9]; 62 g ai/ha): 98
Plant response rating, Nightshade [9, 12]: 98
Plant response rating, Ragweed [10, 13]: 0
Ragweed plant response rating ([10]; 31 g ai/ha): 0
Ragweed plant response rating ([10]; 62 g ai/ha): 5
Plant response rating, Ragweed [10, 12]: 35
Plant response rating, Kochia [11, 13]: 0
Kochia plant response rating ([11]; 31 g ai/ha): 30
Kochia plant response rating ([11]; 62 g ai/ha): 90
Plant response rating, Kochia [11, 12]: 98
